# US10882871B2, “18/19F-labelled compounds which target the prostate specific membrane antigen” (BRITISH COLUMBIA CANCER AGENCY BRANCH, priority 2016, dated 2021)
# Several values for one entry are separate records, joined by “and”; a condition that tells them apart may be missing. Equal entries are not always repeated.
# Tested on: tumors derived from LNCaP cells
# Assay: PET/CT imaging and biodistribution of F-18 labeled HTK-01069 and HTK-01070 in tumor-bearing mice
# Assay type: in vivo, mouse (NODSCID 1L2RγKO male mice)
# Protocol: LNCap cell line used in the tumor model was obtained commercially from ATTC (LNCaP clone FGC, CRL-1740). It was established from a metastatic site of left supraclavicular lymph node of human prostatic adenocarcinoma. Cells were cultured in PRMI 1640 (StemCell Technologies, Vancouver, BC) supplemented by 10% FBS, 100 U/mL penicillin and 100 μg/mL streptomycin at 37° C. in a humidified incubator containing 5% CO2. Cells grown to 80-90% confluence were then washed with sterile phosphate-buffered saline (1×PBS pH 7.4) and trypsinization. The collected cells number was counted with Hemacytometer (Hausser Scientific).
# Tumor implantation: Imaging and biodistribution experiments were performed using NODSCID 1L2RγKO male mice. Three or four mice in each cage equipped with enrichments. The mice were maintained and the experiments were conducted in according to the guidelines established by Canadian Council on Animal Care and approved by Animal Ethics Committee of the University of British Columbia. Mice were housed under pathogen-free conditions and kept on twelve hours light and twelve hours dark cycle in the Animal Research Centre, British Columbia Cancer Research Centre, Vancouver, Canada.
# Mice were anesthetized by inhalation with 2.5% isoflurane in 2.0 L/min of oxygen during cells implantation. Mice were implanted subcutaneously with 1×10^7 LNCaP cells behind left shoulder. Mice were imaged or used in biodistribution studies when the tumor grew up to reach 5-8 mm in diameter during 5-6 weeks.
# PET/CT Imaging: PET imaging experiments were conducted using Siemens inveon micro PET/CT scanner. Each tumor bearing mouse was injected ˜6.44 MBq of F-18 labeled HTK-01069 and ˜7.08 MBq of F-18 labeled HTK-01070 through the tail vein under anesthesia. After one hour, the mice were sedated again with 2% isoflurane inhalation and positioned in the scanner. Static PET imaging was performed to determined activity uptake of tumor and other organs. A CT scan was obtained for localization and attenuation correction after segmentation for reconstructing the PET images. The data was acquired by scanning the mice for 10 minutes each. The mice were kept warm by a heating pad during acquisition. The mice were euthanized after imaging and followed by biodistribution. Please see FIGS. 2 and 3 of this specification for reconstructed PET images for 1L2RγKO mice injected with HTK-01069 and HTK-01070 respectively.
# Blood was withdrawn immediately, and the organs of interest were quickly removed. Each organ was weighed and the tissue radioactivity was measured with a Cobra II gamma counter (Packard), normalized to the injected dose using a standard curve and expressed as the percentage of the injected dose per gram of tissue (% ID/g). Biodistribution data are shown for HTK-01069 in Tables 5, 6 and 7 and HTK-01070 in Tables 8, 9, 10 of the specification respectively.
# [1] = 1 h p.i. with co-injection of 0.5 mg DCFPyL, Avg
# [2] = 1 h p.i. with co-injection of 0.5 mg DCFPyL, single mice
smiles,measurement,setting,value
C[N+](C)(Cc1ccc(C(=O)NCCCC[C@H](NC(=O)N[C@@H](CCC(=O)O)C(=O)O)C(=O)O)cc1)C[B-](F)(F)[18F] [F-18 HTK-01069],Biodistribution Adrenals,[1],0.35 % ID/g
same,Biodistribution Blood,[1],0.45 % ID/g
same,Biodistribution Bone,[1],0.13 % ID/g
same,Biodistribution Brain,[1],0.03 % ID/g
same,Biodistribution Fat,[1],0.11 % ID/g
same,Biodistribution Heart,[1],0.25 % ID/g
same,Biodistribution Intestine,[1],0.57 % ID/g
same,Biodistribution Kidney,[1],3.54 % ID/g
same,Biodistribution Liver,[1],0.11 % ID/g
same,Biodistribution Lung,[1],0.15 % ID/g
same,Biodistribution Muscle,[1],0.30 % ID/g
same,Biodistribution Pancreas,[1],3.00 % ID/g
same,Biodistribution Seminal,[1],0.38 % ID/g
same,Biodistribution Spleen,[1],0.11 % ID/g
same,Biodistribution Stomach,[1],0.13 % ID/g
same,Biodistribution Tail,[1],0.44 % ID/g
same,Biodistribution Testes,[1],0.10 % ID/g
same,Biodistribution Tumour,[1],0.33 % ID/g
same,Biodistribution Bone,[2],0.15 % ID/g and 0.17 % ID/g and 0.11 % ID/g and 0.10 % ID/g
same,Biodistribution Brain,[2],0.02 % ID/g and 0.03 % ID/g and 0.04 % ID/g
same,Biodistribution Heart,[2],0.17 % ID/g and 0.31 % ID/g and 0.27 % ID/g and 0.26 % ID/g
same,Biodistribution Kidney,[2],2.35 % ID/g and 3.57 % ID/g and 4.08 % ID/g and 4.15 % ID/g
same,Biodistribution Lung,[2],0.10 % ID/g and 0.20 % ID/g and 0.16 % ID/g and 0.13 % ID/g
same,Biodistribution Muscle,[2],0.22 % ID/g and 0.36 % ID/g and 0.37 % ID/g and 0.26 % ID/g
same,Biodistribution Pancreas,[2],2.40 % ID/g and 3.36 % ID/g and 2.71 % ID/g and 3.53 % ID/g
same,Biodistribution Stomach,[2],0.08 % ID/g and 0.13 % ID/g and 0.15 % ID/g
same,Biodistribution Tail,[2],0.43 % ID/g and 0.41 % ID/g and 0.37 % ID/g and 0.55 % ID/g
same,Biodistribution Testes,[2],0.07 % ID/g and 0.13 % ID/g and 0.12 % ID/g and 0.09 % ID/g
same,Biodistribution Tumour,[2],0.30 % ID/g and 0.35 % ID/g and 0.26 % ID/g and 0.42 % ID/g
same,Biodistribution Adrenals,"1 h p.i., Avg",3.98 % ID/g
same,Biodistribution Blood,"1 h p.i., Avg",0.52 % ID/g
same,Biodistribution Bone,"1 h p.i., Avg",0.27 % ID/g
same,Biodistribution Brain,"1 h p.i., Avg",0.03 % ID/g
same,Biodistribution Fat,"1 h p.i., Avg",1.09 % ID/g
same,Biodistribution Heart,"1 h p.i., Avg",1.16 % ID/g
same,Biodistribution Intestine,"1 h p.i., Avg",0.55 % ID/g
same,Biodistribution Kidney,"1 h p.i., Avg",92.90 % ID/g
same,Biodistribution Liver,"1 h p.i., Avg",0.14 % ID/g
same,Biodistribution Lung,"1 h p.i., Avg",0.26 % ID/g
same,Biodistribution Muscle,"1 h p.i., Avg",0.36 % ID/g
same,Biodistribution Pancreas,"1 h p.i., Avg",2.77 % ID/g
same,Biodistribution Seminal,"1 h p.i., Avg",2.82 % ID/g
same,Biodistribution Spleen,"1 h p.i., Avg",0.48 % ID/g
same,Biodistribution Stomach,"1 h p.i., Avg",2.99 % ID/g
same,Biodistribution Tail,"1 h p.i., Avg",0.62 % ID/g
same,Biodistribution Testes,"1 h p.i., Avg",0.53 % ID/g
same,Biodistribution Tumour,"1 h p.i., Avg",5.58 % ID/g
same,Biodistribution Brain,"1 h p.i., single mice",0.03 % ID/g
same,Biodistribution Fat,"1 h p.i., single mice",0.95 % ID/g and 1.21 % ID/g and 0.74 % ID/g and 1.46 % ID/g
same,Biodistribution Intestine,"1 h p.i., single mice",0.43 % ID/g and 0.59 % ID/g and 0.54 % ID/g and 0.64 % ID/g
same,Biodistribution Lung,"1 h p.i., single mice",0.21 % ID/g and 0.28 % ID/g and 0.22 % ID/g and 0.32 % ID/g
same,Biodistribution Muscle,"1 h p.i., single mice",0.36 % ID/g and 0.39 % ID/g and 0.34 % ID/g and 0.35 % ID/g
same,Biodistribution Pancreas,"1 h p.i., single mice",2.32 % ID/g and 2.86 % ID/g and 2.76 % ID/g and 3.17 % ID/g
same,Biodistribution Tail,"1 h p.i., single mice",0.70 % ID/g and 0.47 % ID/g and 0.57 % ID/g and 0.74 % ID/g
same,Biodistribution Testes,"1 h p.i., single mice",0.44 % ID/g and 0.58 % ID/g and 0.51 % ID/g and 0.60 % ID/g
same,Biodistribution Tumour,"1 h p.i., single mice",7.84 % ID/g and 4.16 % ID/g and 4.47 % ID/g and 5.86 % ID/g
same,Biodistribution Adrenals,"2 h p.i., Avg",2.01 % ID/g
same,Biodistribution Blood,"2 h p.i., Avg",0.16 % ID/g
same,Biodistribution Bone,"2 h p.i., Avg",0.12 % ID/g
same,Biodistribution Brain,"2 h p.i., Avg",0.03 % ID/g
same,Biodistribution Fat,"2 h p.i., Avg",0.43 % ID/g
same,Biodistribution Heart,"2 h p.i., Avg",0.72 % ID/g
same,Biodistribution Intestine,"2 h p.i., Avg",0.75 % ID/g
same,Biodistribution Kidney,"2 h p.i., Avg",51.79 % ID/g
same,Biodistribution Liver,"2 h p.i., Avg",0.06 % ID/g
same,Biodistribution Lung,"2 h p.i., Avg",0.12 % ID/g
same,Biodistribution Muscle,"2 h p.i., Avg",0.24 % ID/g
same,Biodistribution Pancreas,"2 h p.i., Avg",2.24 % ID/g
same,Biodistribution Seminal,"2 h p.i., Avg",3.24 % ID/g
same,Biodistribution Spleen,"2 h p.i., Avg",0.26 % ID/g
same,Biodistribution Stomach,"2 h p.i., Avg",2.25 % ID/g
same,Biodistribution Tail,"2 h p.i., Avg",0.31 % ID/g
same,Biodistribution Testes,"2 h p.i., Avg",0.39 % ID/g
same,Biodistribution Tumour,"2 h p.i., Avg",5.36 % ID/g
same,Biodistribution Bone,"2 h p.i., single mice",0.12 % ID/g and 0.08 % ID/g and 0.14 % ID/g and 0.13 % ID/g
same,Biodistribution Brain,"2 h p.i., single mice",0.04 % ID/g and 0.02 % ID/g and 0.03 % ID/g
same,Biodistribution Heart,"2 h p.i., single mice",0.63 % ID/g and 0.61 % ID/g and 0.79 % ID/g and 0.84 % ID/g
same,Biodistribution Intestine,"2 h p.i., single mice",0.78 % ID/g and 0.92 % ID/g and 0.63 % ID/g and 0.68 % ID/g
same,Biodistribution Kidney,"2 h p.i., single mice",62.04 % ID/g and 35.60 % ID/g and 49.89 % ID/g and 59.65 % ID/g
same,Biodistribution Lung,"2 h p.i., single mice",0.16 % ID/g and 0.09 % ID/g and 0.11 % ID/g and 0.14 % ID/g
same,Biodistribution Muscle,"2 h p.i., single mice",0.29 % ID/g and 0.18 % ID/g and 0.22 % ID/g and 0.28 % ID/g
same,Biodistribution Pancreas,"2 h p.i., single mice",2.39 % ID/g and 1.89 % ID/g and 2.21 % ID/g and 2.48 % ID/g
same,Biodistribution Spleen,"2 h p.i., single mice",0.31 % ID/g and 0.18 % ID/g and 0.21 % ID/g and 0.33 % ID/g
same,Biodistribution Tail,"2 h p.i., single mice",0.29 % ID/g and 0.24 % ID/g and 0.36 % ID/g and 0.34 % ID/g
same,Biodistribution Testes,"2 h p.i., single mice",0.41 % ID/g and 0.37 % ID/g and 0.39 % ID/g
same,Biodistribution Tumour,"2 h p.i., single mice",5.03 % ID/g and 4.25 % ID/g and 5.74 % ID/g and 6.41 % ID/g
